Test results taken from paper PMC4767442 (Oncotarget, 2015).

Experiments:
[1] = Pharmacokinetics after single i.v. administration to rats (plasma, UHPLC-MS/MS); type: in vivo, Wistar rats
Description: Male Wistar rats (230-310 g; n = 22) obtained from Velaz (Czech Republic) were kept in an air-conditioned room under a 12 h light-dark cycle, constant temperature and humidity and had free access to water and a standard laboratory pellet diet for rodents. All animal handling and procedures were approved and supervised by the Animal Welfare Body of the Faculty of Medicine in Hradec Kralove, Charles University in Prague. The investigation conformed to the Guide for the Care and Use of Laboratory Animals.
The rats were anaesthetized with pentobarbital (30 mg^.kg^−1; i.p.) and then the vena jugularis and arteria carotis were prepared for drug administration and blood sample collection, respectively. Both Dp44mT and DpC were dissolved in a mixture of saline, PEG 300 and ethanol (5:4:1, v/v/v) and administered to rats at a dose of 2 mg^.kg^−1, as a slow i.v. bolus. Blood was then collected into EDTA-containing tubes, immediately centrifuged and the plasma kept at −80°C until being analyzed. The blood withdrawn from animals was compensated with an appropriate volume of saline. The animals were sacrificed by pentobarbital overdose.
Initially, for both compounds, rats (n = 2, in each group) were used for the in-vivo investigation of the thiosemicarbazone metabolites and also the preparation of the quantitative analytical method. For the full PK study, 6 rats were used for each compound (group 1) and the blood was sampled at 4, 10, 30, 60, 120, 240 and 360 min post-administration.
Due to the markedly slower elimination of DpC, an additional in-vivo study was performed to appropriately describe the elimination phase of this drug. The conscious rats (n = 8, group 2) were administered DpC (2 mg^.kg^−1) via slow i.v. bolus to the vena saphena. Blood was sampled from the retro-orbital plexus under light ether anesthesia during the following time intervals: 120, 360, 600, 1440 and 1800 min. Plasma samples were treated and analyzed using the analytical methods described below in the Section: UHPLC-MS/MS methods for quantitative assay of the drugs and their metabolites.
Standard non-compartmental analysis was performed implementing Kinetica software (version 4.0, Thermo Fisher Scientific Inc., MA, U.S.A.). […] Maximum concentration (Cmax) and the time to maximum concentration (Tmax) were determined directly from the geometric mean vs. time profiles and from individual profiles. The area under the mean plasma concentration–time curve from zero up to the last sampling interval (AUC0-tlast) was calculated by a combination of the linear and log-linear trapezoidal methods. The area under the mean plasma concentration–time curve from zero up to infinity (AUC) was determined as the sum of the AUC0–tlast and of the extrapolated part (i.e., the ratio of the concentration predicted at the time interval of tlast and the terminal rate constant, λz). The λz was estimated by linear regression of the log transformed concentrations in the terminal part of the curve.
Population pharmacokinetic modeling was performed using non-linear, mixed effect modeling as implemented in Monolix, version 4 (http://wfn.software.monolix.org). Pharmacokinetic parameters were estimated by computing the maximum likelihood estimator of the parameters without any approximation of the model (no linearization). This was performed using the Stochastic Approximation Expectation Maximization (SAEM) algorithm combined with a Markov chain Monte Carlo procedure. The between-animal variability in model parameters were ascribed to an exponential model and a proportional model was used to describe the residual variability. The goodness-of-fit was assessed by using several diagnostic plots (observed and predicted concentrations vs. time; observed concentrations vs. population predictions; weighted residuals vs. time; and weighted residuals vs. predictions). Individual parameter values were obtained as empirical Bayes estimates. […]

[2] = Post-preparative stability in the autosampler at 10°C; type: physicochemical; settings: for Post-preparative stability: autosampler 10°C, 24 h
Description: (§1) The UHPLC-MS/MS methods for quantitative assays were validated with respect to selectivity, linearity, precision, accuracy, stability, recovery, matrix effects and dilution integrity (see […]
Supplementary Table 1-3). […]
(§2) Stability was assessed at low, medium and high concentration levels. Long -term stability was assessed for plasma samples at -80°C over a period of 7 days (three aliquots per level; Supplementary Table 3). […]

[3] = Long-term stability in plasma samples at -80°C; type: in vitro ADME, rat; settings: for Long-term stability: plasma, -80°C, 7 days
Description: as §1
Linearity was examined over the concentration ranges described in Supplementary Table 1 using a weighted (1/x 2) linear regression in GraphPad Prism 6 (v. 6.04, GraphPad Software […]
as §2

[4] = tested on: HL-60 human promyelocytic leukemia cell line; experiment: MTT proliferation/viability assay, HL-60; type: cell-based; settings: 72 h/37°C, mean ± S.D.
Description: (§3) The MCF-7 human breast adenocarcinoma cell line was purchased from the European Collection of Cell Cultures (U.K.). The HL-60 human promyelocytic leukemia cell line, HCT116 human colorectal carcinoma cell line, H9c2 rat heart-derived myoblast cell line and 3T3 mouse embryo fibroblast line, were obtained from the American Type Culture Collection (VA, U.S.A.). Cells were cultured in Dulbecco's modified Eagle's medium (DMEM, Lonza, Switzerland) with or without (for MCF-7 cells only) phenol red, supplemented with 10% heat-inactivated fetal bovine serum (FBS; Lonza, Switzerland), 1% penicillin/streptomycin solution (Lonza, Switzerland) and 10 mM HEPES buffer (pH 7.0-7.6; Sigma-Aldrich, Germany). The HL-60 cell line was maintained in RPMI medium (Sigma-Aldrich, Germany) supplemented with 10% heat-inactivated FBS and 1% penicillin/streptomycin solution. All cell lines were cultured in 75 cm^2 tissue culture flasks (Switzerland) at 37°C in a humidified atmosphere of 5% CO2. Sub-confluent cells or, in the case of HL-60 cells, a cell suspension, were sub-cultured every 3-4 days.
(§4) Cells were seeded in 96-well plates for 24 h/37°C at a density of 5,000 (MCF-7), 10,000 (HL-60), 2,000 (HCT116) and 10,000 (3T3 and H9c2) cells/well. For 3T3 and H9c2 cells, the medium was changed to serum- and pyruvate-free DMEM 24 h prior to the experiments. Anti-proliferative and cytotoxicity effects of the compounds were studied at different concentrations after incubations for 72 h/37°C. Viabilities of cells were determined using MTT assays (Sigma-Aldrich, Germany) according to the manufacturer's instructions on a Tecan Infinite 200M plate reader (Tecan, Austria). The proliferation/viability of treated groups was expressed as a percentage of the untreated controls (100%).

[5] = tested on: H9c2 rat heart-derived myoblast cell line; experiment: MTT proliferation/viability assay, H9c2; type: cell-based; settings: 72 h/37°C, mean ± S.D., serum- and pyruvate-free DMEM
Description: as §3, §4

[6] = tested on: MCF-7 human breast adenocarcinoma cell line; experiment: MTT proliferation/viability assay, MCF-7; type: cell-based; settings: MCF7, 72 h/37°C, mean ± S.D.
Description: as §3, §4

[7] = tested on: cellular labile iron pools; experiment: Fluorimetric calcein-AM assay of intracellular iron chelation; type: cell-based; settings: 10 μmol·L^−1
Description: (§5) Iron chelation efficiency of the compounds at a concentration of 10 μmol·L^−1 was determined via 3 methods: (1) the calcein assay; (2) the ability of the ligands to induce ^59Fe mobilization from cells prelabeled with ^59Fe-transferrin; and (3) the efficacy of these agents to inhibit the uptake of ^59Fe from ^59Fe-transferrin [22, 38–40].
(§6) The fluorimetric calcein-AM assay was performed by established methods, as described previously. The Fe chelation efficiency of the metabolites in cells was expressed as a percentage of that of the parent chelator, Dp44mT or DpC (100%). For studies assessing the ability of these agents to induce ^59Fe mobilization and inhibit ^59Fe uptake from ^59Fe-transferrin by cells, human transferrin (Sigma-Aldrich, Germany) was labeled with ^59Fe (PerkinElmer, MA, USA) to generate ^59Fe-transferrin at a final specific activity of 500 pCi/pmol Fe, as previously described. The unbound ^59Fe was removed by exhaustive vacuum dialysis against a large excess of 0.15 M NaCl buffered to pH 7.4 with 1.4% NaHCO3 by standard methods.

[8] = tested on: HCT116 human colorectal carcinoma cell line; experiment: MTT proliferation/viability assay, HCT116; type: cell-based; settings: HCT-116, 72 h/37°C, mean ± S.D.
Description: as §3, §4

[9] = tested on: 3T3 mouse embryo fibroblast line; experiment: MTT proliferation/viability assay, 3T3; type: cell-based; settings: 72 h/37°C, mean ± S.D., serum- and pyruvate-free DMEM
Description: as §3, §4

MCF-7 cells [10] = experiment: Inhibition of internalized 59Fe uptake from 59Fe-transferrin; type: cell-based, human; settings: MCF-7, compounds 25 μmol·L^−1, 3 h/37°C
Description: as §5, §6
(§7) To examine the ability of the studied substances to mobilize ^59Fe from MCF-7 cells or inhibit ^59Fe uptake from ^59Fe-transferrin, established techniques were utilized. For ^59Fe mobilization studies, cells were preincubated with ^59Fe-transferrin (0.75 μmol·L^−1) for 3 h/37°C, washed 4 times at 4°C on ice, and then reincubated with control medium or control medium containing the compounds (25 μmol·L^−1) for 3 h/37°C. The release of ^59Fe from the cells into the overlying medium was then examined by collecting both the cells and overlying medium and assessing ^59Fe levels using a γ-counter. For studies examining the ability of the agents to inhibit ^59Fe uptake from ^59Fe-transferrin, cells were incubated for 3 h/37°C with ^59Fe-transferrin (0.75 μmol·L^−1) in the presence or absence of the agents (25 μmol·L^−1), and then washed 4 times at 4°C on ice. The internalization of ^59Fe by cells was then assessed by incubation for 30 min/4°C with the general protease, Pronase (1 mg/mL), utilizing standard techniques. The amount of internalized ^59Fe in the presence of the agents was expressed as a percentage of ^59Fe internalized by control cells incubated in the presence of control media alone.

MCF-7 cells [11] = experiment: 59Fe mobilization from cells prelabeled with 59Fe-transferrin; type: cell-based, human; settings: MCF-7 prelabeled with 59Fe-transferrin, compounds 25 μmol·L^−1, 3 h/37°C
Description: as §5, §6, §7

[12] = high concentration level (2.105-3.115 µmol·L-1)
[13] = low concentration level (0.035-0.156 µmol·L-1)
[14] = medium concentration level (0.702-1.558 µmol·L-1)

IC50 [4] [µM] | IC50 [6] [µM] | IC50 [8] [µM] | SMILES | IC50 [5] [µM] | intracellular Fe chelation efficacy (in words) [7] | IC50 [9] [µM] | inhibition of 59Fe uptake from 59Fe-transferrin (in words) (MCF-7 cells [10]) | 59Fe mobilization (in words) (MCF-7 cells [11]) | further results
– | – | – | CNC(=S)NN=C(c1ccccn1)c1ccccn1 [Dp4mT, di(2-pyridyl)ketone 4-methyl-3-thiosemicarbazone] | – | – | – | – | – | Cmax ([1]; male, Wistar, rat, plasma, iv, 2 mg/kg, rats, i.v. 2 mg·kg^−1, non-compartmental analysis of geometric mean plasma curves, Dp4mT = metabolite after Dp44mT dosing, read-out: Cmax): 496 nM; Tmax ([1]; male, Wistar, rat, plasma, iv, 2 mg/kg, rats, i.v. 2 mg·kg^−1, non-compartmental analysis, Dp4mT = metabolite after Dp44mT dosing, read-out: Tmax (converted)): 0.167 h; AUC(0-inf) ([1]; male, Wistar, rat, plasma, iv, 2 mg/kg, rats, i.v. 2 mg·kg^−1, non-compartmental analysis, read-out: AUC (zero to infinity)): 0.748 µM·h; half-life ([1]; male, Wistar, rat, plasma, iv, 2 mg/kg, rats, i.v. 2 mg·kg^−1, non-compartmental analysis, read-out: t1/2 (elimination half-life) (converted)): 2 h; AUC(0-t) ([1]; male, Wistar, rat, plasma, iv, 2 mg/kg, read-out: AUC0-tlast): 0.671 µM·h; lamdaz (terminal rate constant of elimination) ([1]; rats, i.v. 2 mg·kg^−1, non-compartmental analysis): 0.346 h⁻¹; decomposition on storage (in words) ([2]; 24 h storage in the autosampler at 10°C): No significant decomposition; Post-preparative stability [2, 12]: 95.44%; Post-preparative stability [2, 13]: 100.24%; Post-preparative stability [2, 14]: 111.72%; Long-term stability [3, 12]: 90.82%; Long-term stability [3, 13]: 94.78%; Long-term stability [3, 14]: 90.83%; decomposition on storage (in words) ([3]; up to 7 days stored at −80°C): No significant decomposition
2.57 ± 0.33 | 3 ± 0.81 | 3.03 ± 0.91 | CN(C(=O)NN=C(c1ccccn1)c1ccccn1)C1CCCCC1 [DpC-S, di(2-pyridyl)ketone 4-cyclohexyl-4-methylsemicarbazone] | 5.59 ± 0.82 | lower ability to bind intracellular Fe than their parent ligands | 12.8 ± 2.87 | marked and similar to DpC | comparable to DpC | –
27.3 ± 3.56 | 29.4 ± 8.63 | 9.31 ± 1.58 | CN(C)C(=O)NN=C(c1ccccn1)c1ccccn1 [Dp44mS, di(2-pyridyl)ketone 4,4-dimethylsemicarbazone] | 367 ± 63.4 | lower ability to bind intracellular Fe than their parent ligands | 139 ± 28.9 | – | approximately half as effective as Dp44mT | internalized 59Fe uptake from 59Fe-transferrin, % of the control (MCF-7 cells [10]): 64%
> 1000 | > 1000 | > 1000 | O=C(c1ccccn1)c1ccccn1 [DpK, di(2-pyridyl)ketone] | > 1000 | lower ability to bind intracellular Fe than their parent ligands | > 1000 | did not have any significant (p>0.05) effect | no greater than the control | –
